Test results published in ChEMBL document CHEMBL1149623, “Identification of antibacterial and antiviral activities of novel fused 1,2,4-triazine esters” (2007).

Columns and labels:
HEK293 [1] = experiment: Cytotoxicity against human HEK293 cells at 100 ug/mL after 72 hrs by MTT assay; assay type: functional
HEK293 [2] = experiment: Cytotoxicity against human HEK293 cells at 200 ug/mL after 72 hrs by MTT assay; assay type: functional
[3] = Cytotoxicity against monkey GMK cells at 2.5 ug/mL after 72 hrs by MTT assay; assay type: functional, Chlorocebus aethiops
[4] = Cytotoxicity against monkey GMK cells at 50 ug/mL after 24 hrs by MTT assay; assay type: functional, Chlorocebus aethiops
[5] = Cytotoxicity against monkey GMK cells at 5 ug/mL after 24 hrs by MTT assay; assay type: functional, Chlorocebus aethiops
[6] = Cytotoxicity against monkey GMK cells at 25 ug/mL after 24 hrs by MTT assay; assay type: functional, Chlorocebus aethiops
[7] = Cytotoxicity against monkey GMK cells at 100 ug/mL after 24 hrs by MTT assay; assay type: functional, Chlorocebus aethiops
[8] = Cytotoxicity against monkey GMK cells at 200 ug/mL after 24 hrs by MTT assay; assay type: functional, Chlorocebus aethiops
[9] = Cytotoxicity against monkey GMK cells at 2.5 ug/mL after 48 hrs by MTT assay; assay type: functional, Chlorocebus aethiops
[10] = Cytotoxicity against monkey GMK cells at 5 ug/mL after 48 hrs by MTT assay; assay type: functional, Chlorocebus aethiops
[11] = Cytotoxicity against monkey GMK cells at 50 ug/mL after 48 hrs by MTT assay; assay type: functional, Chlorocebus aethiops
[12] = Cytotoxicity against monkey GMK cells at 100 ug/mL after 48 hrs by MTT assay; assay type: functional, Chlorocebus aethiops
[13] = Cytotoxicity against monkey GMK cells at 5 ug/mL after 72 hrs by MTT assay; assay type: functional, Chlorocebus aethiops
[14] = Cytotoxicity against monkey GMK cells at 25 ug/mL after 72 hrs by MTT assay; assay type: functional, Chlorocebus aethiops
[15] = Cytotoxicity against monkey GMK cells at 50 ug/mL after 72 hrs by MTT assay; assay type: functional, Chlorocebus aethiops
[16] = Cytotoxicity against monkey GMK cells at 100 ug/mL after 72 hrs by MTT assay; assay type: functional, Chlorocebus aethiops
[17] = Cytotoxicity against monkey GMK cells at 200 ug/mL after 72 hrs by MTT assay; assay type: functional, Chlorocebus aethiops
[18] = Cytotoxicity against monkey GMK cells at 5 ug/mL after 96 hrs by MTT assay; assay type: functional, Chlorocebus aethiops
[19] = Cytotoxicity against monkey GMK cells at 10 ug/mL after 96 hrs by MTT assay; assay type: functional, Chlorocebus aethiops
[20] = Cytotoxicity against monkey GMK cells at 25 ug/mL after 96 hrs by MTT assay; assay type: functional, Chlorocebus aethiops
[21] = Cytotoxicity against monkey GMK cells at 50 ug/mL after 96 hrs by MTT assay; assay type: functional, Chlorocebus aethiops
[22] = Cytotoxicity against monkey GMK cells at 200 ug/mL after 96 hrs by MTT assay; assay type: functional, Chlorocebus aethiops
[23] = Cytotoxicity against monkey GMK cells at 2.5 ug/mL after 120 hrs by MTT assay; assay type: functional, Chlorocebus aethiops
[24] = Cytotoxicity against monkey GMK cells at 10 ug/mL after 120 hrs by MTT assay; assay type: functional, Chlorocebus aethiops
[25] = Cytotoxicity against monkey GMK cells at 25 ug/mL after 120 hrs by MTT assay; assay type: functional, Chlorocebus aethiops
[26] = Cytotoxicity against monkey GMK cells at 100 ug/mL after 120 hrs by MTT assay; assay type: functional, Chlorocebus aethiops
HEK293 [27] = experiment: Cytotoxicity against human HEK293 cells at 2.5 ug/mL after 24 hrs by MTT assay; assay type: functional
HEK293 [28] = experiment: Cytotoxicity against human HEK293 cells at 5 ug/mL after 24 hrs by MTT assay; assay type: functional
HEK293 [29] = experiment: Cytotoxicity against human HEK293 cells at 10 ug/mL after 24 hrs by MTT assay; assay type: functional
HEK293 [30] = experiment: Cytotoxicity against human HEK293 cells at 25 ug/mL after 24 hrs by MTT assay; assay type: functional
HEK293 [31] = experiment: Cytotoxicity against human HEK293 cells at 50 ug/mL after 24 hrs by MTT assay; assay type: functional
HEK293 [32] = experiment: Cytotoxicity against human HEK293 cells at 100 ug/mL after 24 hrs by MTT assay; assay type: functional
HEK293 [33] = experiment: Cytotoxicity against human HEK293 cells at 200 ug/mL after 24 hrs by MTT assay; assay type: functional
HEK293 [34] = experiment: Cytotoxicity against human HEK293 cells at 2.5 ug/mL after 48 hrs by MTT assay; assay type: functional
HEK293 [35] = experiment: Cytotoxicity against human HEK293 cells at 5 ug/mL after 48 hrs by MTT assay; assay type: functional
HEK293 [36] = experiment: Cytotoxicity against human HEK293 cells at 10 ug/mL after 48 hrs by MTT assay; assay type: functional
HEK293 [37] = experiment: Cytotoxicity against human HEK293 cells at 25 ug/mL after 48 hrs by MTT assay; assay type: functional
HEK293 [38] = experiment: Cytotoxicity against human HEK293 cells at 50 ug/mL after 48 hrs by MTT assay; assay type: functional
HEK293 [39] = experiment: Cytotoxicity against human HEK293 cells at 100 ug/mL after 48 hrs by MTT assay; assay type: functional
HEK293 [40] = experiment: Cytotoxicity against human HEK293 cells at 200 ug/mL after 48 hrs by MTT assay; assay type: functional
HEK293 [41] = experiment: Cytotoxicity against human HEK293 cells at 5 ug/mL after 72 hrs by MTT assay; assay type: functional
HEK293 [42] = experiment: Cytotoxicity against human HEK293 cells at 10 ug/mL after 72 hrs by MTT assay; assay type: functional
HEK293 [43] = experiment: Cytotoxicity against human HEK293 cells at 50 ug/mL after 72 hrs by MTT assay; assay type: functional
HEK293 [44] = experiment: Cytotoxicity against human HEK293 cells at 2.5 ug/mL after 96 hrs by MTT assay; assay type: functional
HEK293 [45] = experiment: Cytotoxicity against human HEK293 cells at 5 ug/mL after 96 hrs by MTT assay; assay type: functional
HEK293 [46] = experiment: Cytotoxicity against human HEK293 cells at 10 ug/mL after 96 hrs by MTT assay; assay type: functional
HEK293 [47] = experiment: Cytotoxicity against human HEK293 cells at 50 ug/mL after 96 hrs by MTT assay; assay type: functional
HEK293 [48] = experiment: Cytotoxicity against human HEK293 cells at 100 ug/mL after 96 hrs by MTT assay; assay type: functional
HEK293 [49] = experiment: Cytotoxicity against human HEK293 cells at 200 ug/mL after 96 hrs by MTT assay; assay type: functional
HEK293 [50] = experiment: Cytotoxicity against human HEK293 cells at 10 ug/mL after 120 hrs by MTT assay; assay type: functional
HEK293 [51] = experiment: Cytotoxicity against human HEK293 cells at 25 ug/mL after 120 hrs by MTT assay; assay type: functional
HEK293 [52] = experiment: Cytotoxicity against human HEK293 cells at 200 ug/mL after 120 hrs by MTT assay; assay type: functional
Human adenovirus 5 [53] = experiment: Antiviral activity against Human adenovirus 5 in HEK293 cells assessed as virus titre at 50 ug/mL after 1 hr; assay type: functional
Human adenovirus 5 [54] = experiment: Antiviral activity against Human adenovirus 5 in HEK293 cells assessed as virus titre at 100 ug/mL after 1 hr; assay type: functional
Human adenovirus 5 [55] = experiment: Antiviral activity against Human adenovirus 5 in HEK293 cells assessed as virus titre at 200 ug/mL after 1 hr; assay type: functional
Echovirus E9 [56] = experiment: Antiviral activity against Human echovirus 9 in GMK cells assessed as virus titre at 100 ug/mL after 1 hr; assay type: functional
Echovirus E9 [57] = experiment: Antiviral activity against Human echovirus 9 in GMK cells assessed as virus titre at 200 ug/mL after 1 hr; assay type: functional

CCOC(=O)CC1NN=C2N(CCN2c2ccc(C)cc2)C1=O (configuration not stated)
70%: Activity (HEK293 [1]) | Activity [16] | Activity [21] | Activity [25] | Activity [26] | Activity (HEK293 [32]) | Activity (HEK293 [47]) | Activity (HEK293 [48])
90%: Activity [4] | Activity [7] | Activity [24] | Activity (HEK293 [31])
3.67 mL⁻¹: TCID50 (Echovirus E9 [56]) | TCID50 (Echovirus E9 [57])
30%: Activity (HEK293 [33])
95%: Activity [19] | Activity (HEK293 [51])
85%: Activity [14]
2.5 mL⁻¹: TCID50 (Human adenovirus 5 [53]) | TCID50 (Human adenovirus 5 [54]) | TCID50 (Human adenovirus 5 [55])
100%: Activity [3] | Activity [5] | Activity [6] | Activity [9] | Activity [10] | Activity [13] | Activity [18] | Activity [23] | Activity (HEK293 [27]) | Activity (HEK293 [28]) | Activity (HEK293 [29]) | Activity (HEK293 [30]) | Activity (HEK293 [34]) | Activity (HEK293 [35]) | Activity (HEK293 [36]) | Activity (HEK293 [37]) | Activity (HEK293 [41]) | Activity (HEK293 [42]) | Activity (HEK293 [44]) | Activity (HEK293 [45]) | Activity (HEK293 [46]) | Activity (HEK293 [50])
20%: Activity (HEK293 [40])
0%: Activity [8] | Activity [17] | Activity [22]
80%: Activity [11] | Activity [12] | Activity [15] | Activity [20] | Activity (HEK293 [38]) | Activity (HEK293 [39]) | Activity (HEK293 [43])
15%: Activity (HEK293 [2]) | Activity (HEK293 [49]) | Activity (HEK293 [52])
